We go through nine molecules from ChEMBL document CHEMBL1129913, “Synthesis and cytotoxicity of novel artemisinin analogs” (Bioorg Med Chem Lett, 1997).

The subject of test [1] is SK-OV-3. Kind of test: Compound was tested for in vitro cytotoxicity against SK-OV-3 (human ovary carcinoma) cell line. It counts as functional, cell-based. As to conditions: SK-OV-3, Female gonad; call rule not given here.
Test [2] relates to Vero. Kind of test: Compound was tested for in vitro cytotoxicity against VERO (African green monkey kidney) cell line. It counts as functional, cell-based. As to conditions: Chlorocebus sabaeus.
Test [3] has as its system KB. Kind of test: Compound was tested for in vitro cytotoxicity against KB (human epidermoid carcinoma) cell line. It counts as functional, cell-based.
Test [4] relates to P388. The experiment in a line: Compound was tested for in vitro cytotoxicity against P388 (murine lymphocytic leukemia) cell line. It counts as functional, cell-based. The conditions noted are these: Mus musculus.
In test [5] the test system is SK-OV-3. The experiment in a line: Compound was tested for in vitro cytotoxicity against SK-OV-3 (human ovary carcinoma) cell line;No activity. It counts as functional, cell-based, Female gonad.
Test [6] deals with P388. The experiment in a line: Compound was tested for in vitro cytotoxicity against P388 (murine lymphocytic leukemia) cell line;No activity. It counts as functional, cell-based, Mus musculus.
Test [7] relates to SK-OV-3. Kind of test: Compound was tested for in vitro cytotoxicity against SK-OV-3 (human ovary carcinoma) cell line; No activity. It counts as functional, cell-based, Female gonad.

In brackets after ≈: the same amount, converted by molar mass.

On to `CC[C@H]1O[C@@H]2O[C@@]3(C)CC[C@H]4[C@H](C)CC[C@@H]([C@H]1C)[C@@]24OO3`, for which the IC50 (commonly the concentration that inhibits the measured activity by half) in test [1] turned out to be 33 µg/mL (≈ 111 µM); in test [2] it was 30 µg/mL (≈ 101 µM); in test [3] it was 20 µg/mL (≈ 67.5 µM); in test [4] it was 5.5 µg/mL (≈ 18.6 µM).

With `C[C@H]1[C@@H](CCCC(=O)O)O[C@@H]2OC3(C)CCC4[C@H](C)CC[C@@H]1[C@]42OO3` (single isomer, unassigned), the 50% inhibitory concentration (IC50) is 30 µg/mL (≈ 84.6 µM) in test [2], 32 µg/mL (≈ 90.3 µM) in test [3], “Not Active” in test [5] and “Not Active” in test [6].

`C[C@@H]1CC[C@H]2[C@@H](C)C(=O)O[C@@H]3O[C@@]4(C)CC[C@@H]1[C@]32OO4` [ARTEMISININ]: the concentration for half-maximal inhibition (IC50) is 31 µg/mL (≈ 110 µM) in test [2], 16 µg/mL (≈ 56.7 µM) in test [3], 28 µg/mL (≈ 99.2 µM) in test [4] and “Not Active” in test [7].

As to `C[C@@H]1CC[C@H]2[C@@H](C)CO[C@@H]3OC4(C)CC[C@@H]1[C@]32OO4` (single isomer, unassigned) [DEOXOARTEMISININ], the IC50 in test [1] was 40 µg/mL (≈ 149 µM); in test [2], 30 µg/mL (≈ 112 µM); in test [3], 24 µg/mL (≈ 89.4 µM); in test [6], “Not Active”.

`C[C@@H]1CCC2[C@@H](C)CCO[C@@H]3OC4(C)CCC1C23OO4` (single isomer, unassigned): the IC50 was 30 µg/mL (≈ 106 µM) in test [2], 22 µg/mL (≈ 77.9 µM) in test [3], 8 µg/mL (≈ 28.3 µM) in test [4] and “Not Active” in test [5].

As for `C[C@H]1[C@@H](Cc2ccccc2)O[C@@H]2OC3(C)CCC4[C@H](C)CC[C@@H]1[C@]42OO3` (single isomer, unassigned), the half-inhibitory concentration (IC50) in test [1] is 32 µg/mL (≈ 89.3 µM); in test [2] it was 15 µg/mL (≈ 41.8 µM); in test [3], 13 µg/mL (≈ 36.3 µM); in test [6], “Not Active”.

For `CCCC[C@H]1O[C@@H]2OC3(C)CC[C@H]4[C@H](C)CC[C@@H]([C@H]1C)[C@@]24OO3` (single isomer, unassigned), the IC50 in test [1] worked out at 40 µg/mL (≈ 123 µM); in test [2], 15 µg/mL (≈ 46.2 µM); in test [3], 4.5 µg/mL (≈ 13.9 µM); in test [4], 40 µg/mL (≈ 123 µM).

Turning to `CCO[C@H]1O[C@@H]2OC3(C)CCC4[C@H](C)CC[C@@H]([C@H]1C)[C@]42OO3` (single isomer, unassigned), the IC50 in test [2] is 28 µg/mL (≈ 89.6 µM); in test [3] it was 15 µg/mL (≈ 48 µM); in test [5], “Not Active”; in test [6] it was “Not Active”.

For `CCN(CC)Cc1ccc(C(=O)O[C@@H]2O[C@@H]3OC4(C)CCC5[C@H](C)CC[C@@H]([C@H]2C)[C@]53OO4)cc1` (single isomer, unassigned), the IC50 in test [2] is 15 µg/mL (≈ 31.7 µM); in test [3], 3 µg/mL (≈ 6.33 µM); in test [5] it was “Not Active”; in test [6], “Not Active”.
